Assay results published in patent publication US20130102683A1, “MELT-GRANULATED FINGOLIMOD” (RATIOPHARM GMBH, priority 2010, published 2013).
Where a name gives a salt, the structure may show the parent alone.

Experiment: Water adsorption of fingolimod salts under set atmospheric humidity (hygrostat)
Format: physicochemical
Details: atmospheric humidity set at 75% by means of a hygrostat; after 2 weeks
From the text: In addition, experiments on various salts of fingolimod have shown that depending on the ambient conditions, the possibility of water adsorption exists. […] Water adsorption on this scale is detrimental to the storage stability of dosage forms containing fingolimod, especially in the case of tablets, granules or powders.

Which “increase of water content” value does the source give for `CCCCCCCCc1ccc(CCC(N)(CO)CO)cc1` [hydrochloride of fingolimod] here?
The value was 7 fold.
